Experimental data: US20230381142A1, “ANTILEISHMANIAL COMPOUNDS, COMPOSITIONS AND USE THEREOF” (TRUSTEES OF BOSTON UNIVERSITY, priority 2022, published 2023)
In brackets after ≈: the same amount, converted by molar mass.

What was measured:
HepG2 cells = experiment: HepG2 cytotoxicity; type: cell-based; details: Homo sapiens; toxicity against HepG2 cells
Protocol: Given the literature precedents described above and the apparent narrow tolerance for R^3 substitutions observed in the primary screen compounds, a thorough and methodical assessment was undertaken of tolerated groups at the three points of diversity (R^1/R^2/R^3) for the core. At this stage of the project, all analogues were assessed using a battery of assays performed in-house at GlaxoSmithKline. For antileishmanial activity, GSK's inMac assay was utilized. This assay provides two readouts of compound potency: average number of intracellular amastigotes per infected cell (AMMAC) EC50, percentage of infected cells per well (INFCELL) EC50, as well as a toxicity output derived from the number of host cells (MAC EC50). In addition, compounds were assessed for toxicity against HepG2 cells (HEPG2 EC50). Here, AMMAC EC50 values were focused on for relative potency assessments. […] It should be noted that for all compounds assessed in this project, the measured toxicity against THP-1 macrophages either equaled or exceeded that of HepG2 hepatocytes, therefore the MAC SI is used here as the more conservative estimate of therapeutic index.

[1] = tested on: L. donovani intracellular amastigotes infecting THP-1 macrophages; experiment: GSK intramacrophage L. donovani assay (LD AMMAC, inMac; Assay Conditions C); type: cell-based; details: Leishmania donovani; growth inhibition of L. donovani intracellular amastigotes infecting THP-1 macrophages; read-out: LD AMMAC EC50
Method in brief: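 EC50 values come from counting amastigotes per infected THP-1 macrophage (AMMAC). Parallel read-outs give percentage of infected cells per well (INFCELL) and a macrophage-number toxicity EC50 (MAC).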

human serum albumin = human serum albumin (Homo sapiens, UniProt P02768); experiment: Human serum albumin (HSA) binding, chromatographic; type: in vitro ADME
Protocol: The percentage of compound bound to human serum albumin was measured using a chromatographic method as described. Briefly, each compound was assayed on an immobilized HSA column and gradient retention times measured, with chromatographic peak detection by UV. Each retention time was then converted to a % HSA bound value using a calibration set of compounds with a known % HSA binding.

[2] = Artificial membrane permeability (AMP); type: in vitro ADME; details: PAMPA, pH 7.4
Protocol: Passive permeability of compounds via rate of permeation through an artificial phospholipid membrane at pH 7.4 was measured in a high-throughput format, in duplicate. A solution of 1.8% phosphatidylcholine in 1% decane was added to a 96-well Millicell filter plate along with 250 μL of 50 mM phosphate buffer, pH 7.4 on the donor side, and 100 μL of the same buffer solution on the receiver side. The assay plate was shaken for 45 minutes before adding test compounds. Test compounds were then added to the filter plate and then incubated at room temperature with shaking for three hours. The donor and receiver solutions were next transferred to a 384-well plate for analysis by LC/MS.

[3] = Property forecast index (PFI = ChromLogD7.4 + aromatic rings); type: physicochemical
Protocol: At the outset of the project, compound 1 was evaluated against GSK's established criteria for antileishmanial compound advancement (Table 2). Some of these assessments were performed on racemic 1, while chiral separation was also pursued of the 1 racemate to determine the active enantiomer. […] Based on this promising profile, it progressed into medicinal chemistry optimization to better understand structure-activity relationships (SAR) toward improved potency, as well as structure-property relationships (SPR) with an eye toward reducing PFI and plasma protein binding.

[4] = Kinetic aqueous solubility by CLND; type: physicochemical; details: kinetic from dmso stock, high-throughput CLND
Protocol: Solubility of compounds using ChemiLuminescent Nitrogen Detection (CLND) was measured as described. Solubility of compounds using Charged Aerosol Detection (CAD) was measured as described. Solubility of solid compounds in Fasted Simulated Intestinal Fluid (FaSSIF) was measured as described.

host THP-1 macrophages = experiment: GSK inMac assay, host cell toxicity readout (LD MAC); type: cell-based, human; details: Homo sapiens, THP-1, cytotoxicity against host THP-1 macrophages
Method in brief: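 MAC EC50 reflects THP-1 host cell counts, measured within GSK's inMac L. donovani infection assay that also scores intracellular amastigotes and infected-cell percentage.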

[5] = aqueous (not further specified)
[6] = aqueous medium (not further specified)

Chain of human serum albumin (P02768 25-609): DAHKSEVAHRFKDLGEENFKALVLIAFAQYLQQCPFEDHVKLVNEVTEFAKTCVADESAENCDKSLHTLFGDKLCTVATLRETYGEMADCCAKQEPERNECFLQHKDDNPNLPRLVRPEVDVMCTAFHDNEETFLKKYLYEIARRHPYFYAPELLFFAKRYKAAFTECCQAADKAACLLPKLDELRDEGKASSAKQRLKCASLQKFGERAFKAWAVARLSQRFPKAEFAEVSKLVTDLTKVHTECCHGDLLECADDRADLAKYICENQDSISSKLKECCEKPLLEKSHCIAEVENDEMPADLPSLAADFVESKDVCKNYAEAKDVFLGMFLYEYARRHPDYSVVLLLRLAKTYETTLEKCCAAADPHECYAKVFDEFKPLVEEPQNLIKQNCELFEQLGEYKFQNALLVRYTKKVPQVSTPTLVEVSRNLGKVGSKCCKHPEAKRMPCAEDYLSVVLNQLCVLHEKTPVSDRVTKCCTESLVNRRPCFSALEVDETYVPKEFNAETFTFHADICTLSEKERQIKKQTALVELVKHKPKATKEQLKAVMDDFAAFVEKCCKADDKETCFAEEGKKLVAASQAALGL

SMILES	EC50 (HepG2 cells)	EC50 [1]	HSA Binding (human serum albumin)	Papp at 3 h [2]	PFI [3]	solubility [4, 5]	EC50 (host THP-1 macrophages)	solubility [4, 6]
CCOc1ccc(N2C(=O)c3[nH]nc(CC(C)C)c3C2c2ccc(F)cc2)cc1 (stereo not drawn) [Compound 19]	50.1 µM	1.6 µM	97.5%	25 ×10⁻⁶ cm/s	8.9	38 µM (≈ 15 µg/mL)	20 µM	
CC(C)Cc1n[nH]c2c1C(c1ccc(F)cc1)N(c1ccc(OC(F)(F)F)cc1)C2=O (stereo not drawn) [Compound 20]	25.1 µM	3.2 µM	98.1%	29 ×10⁻⁶ cm/s	9.8	5 µM (≈ 2.17 µg/mL)	7.9 µM	
CCc1ccc(N2C(=O)c3[nH]nc(CC(C)C)c3C2c2ccc(F)cc2)cc1 (stereo not drawn) [Compound 22]	50.1 µM	4 µM	97.4%	< 1 ×10⁻⁶ cm/s	9.7	9 µM (≈ 3.4 µg/mL)	20 µM	
CC(C)Cc1n[nH]c2c1C(c1ccc(F)cc1)N(c1ccc(F)cc1)C2=O (stereo not drawn) [Compound 23]	50.1 µM	6.3 µM	97.7%	12 ×10⁻⁶ cm/s	8.8	61 µM (≈ 22.4 µg/mL)	25.1 µM	
CC(C)Cc1n[nH]c2c1C(c1ccc(F)cc1)N(c1ccc(Br)cc1)C2=O (stereo not drawn) [Compound 24, 5-(4-bromophenyl)-4-(4-fluorophenyl)-3-isobutyl-4,5-dihydropyrrolo[3,4-c]pyrazol-6(1H)-one]	39.8 µM	1.3 µM	97.9%	32 ×10⁻⁶ cm/s	9.7	9 µM (≈ 3.85 µg/mL)	15.8 µM	
CC(C)Cc1n[nH]c2c1C(c1ccc(F)cc1)N(c1ccc(C(C)(C)C)cc1)C2=O (stereo not drawn) [Compound 25]	50.1 µM	10 µM	97.9%	13 ×10⁻⁶ cm/s	10.5	< 1 µM	> 50 µM	
COC(=O)c1ccc(N2C(=O)c3[nH]nc(CC(C)C)c3C2c2ccc(F)cc2)cc1 (stereo not drawn) [Compound 26]	39.8 µM	1.6 µM	97.5%	41 ×10⁻⁶ cm/s	8.5	26 µM (≈ 10.6 µg/mL)	31.6 µM	
CC(C)Cc1n[nH]c2c1C(c1ccc(F)cc1)N(c1ccc(C(=O)O)cc1)C2=O (stereo not drawn) [Compound 27]	> 100 µM	> 50 µM	95.2%	< 0.3 ×10⁻⁶ cm/s	4.9	≥ 389 µM	> 50 µM	
CC(C)Cc1n[nH]c2c1C(c1ccc(F)cc1)N(c1ccc(-n3ccnc3)cc1)C2=O (stereo not drawn) [Compound 28]	> 100 µM	2.5 µM	96.3%	< 0.3 ×10⁻⁶ cm/s	8.1		> 50 µM	
COc1ccccc1N1C(=O)c2[nH]nc(CC(C)C)c2C1c1ccc(F)cc1 (stereo not drawn) [Compound 29]	79.4 µM	20 µM	97.5%	59 ×10⁻⁶ cm/s	8.5		> 50 µM	240 µM (≈ 91.1 µg/mL)
COc1cccc(N2C(=O)c3[nH]nc(CC(C)C)c3C2c2ccc(F)cc2)c1 (stereo not drawn) [Compound 30]	63.1 µM	12.6 µM	97.3%	37 ×10⁻⁶ cm/s	8.4		31.6 µM	64 µM (≈ 24.3 µg/mL)
COc1ccc(N2C(=O)c3[nH]nc(CC(C)C)c3C2c2ccc(F)cc2)cn1 (stereo not drawn) [Compound 31]	> 100 µM	10 µM	95.5%	26 ×10⁻⁶ cm/s	8.0		> 50 µM	194 µM (≈ 73.8 µg/mL)
CC(C)Cc1n[nH]c2c1C(c1ccc(F)cc1)N(c1cccnc1)C2=O (stereo not drawn) [Compound 32]	> 100 µM	25.1 µM	93.4%	47 ×10⁻⁶ cm/s	7.2		> 50 µM	182 µM (≈ 63.8 µg/mL)
